12 compounds from patent US20260022097A1 (priority 2022, published 2026) can be followed below.

As a reminder, the Ki is a measure of affinity in units of concentration, obtained from inhibition or displacement. A higher Ki goes with weaker binding.

Molecules are shown by their SMILES. Where two headings read alike, the source gives them in different places.

In series [1] the target is T1, MOR (Homo sapiens, UniProt P35372). The series is described as follows: GTP assay (G-protein activation) at MOR. The format is biochemical.
T1 sequence (P35372 whole entry): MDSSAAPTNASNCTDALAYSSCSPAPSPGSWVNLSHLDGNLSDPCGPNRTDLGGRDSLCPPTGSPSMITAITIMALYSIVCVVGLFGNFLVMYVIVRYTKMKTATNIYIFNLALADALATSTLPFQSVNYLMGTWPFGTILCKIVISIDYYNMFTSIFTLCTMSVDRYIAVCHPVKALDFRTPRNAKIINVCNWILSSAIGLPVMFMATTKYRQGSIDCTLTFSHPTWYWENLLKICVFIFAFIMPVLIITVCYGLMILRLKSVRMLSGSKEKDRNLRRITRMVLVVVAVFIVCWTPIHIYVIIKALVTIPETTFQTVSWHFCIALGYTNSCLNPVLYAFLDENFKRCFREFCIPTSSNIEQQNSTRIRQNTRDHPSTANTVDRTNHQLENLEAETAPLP
In the next series the target is mu-opioid receptor (MOR) (Homo sapiens, UniProt P35372). In words: cell-based. It counts as cell-based. To be noted: for EC50: read-out: MOR Agonist EC50+/-SEM; for Emax: read-out: MOR Agonist % Emax+/-SEM.
Chain of mu-opioid receptor (MOR) (P35372 whole entry): as above
Series [2] relates to squirrel monkeys. The series is described as follows: antinociceptive effects in vivo in squirrel monkeys.
The target of series [3] is kappa-opioid receptor (KOR) (Homo sapiens, UniProt P41145). In words: inhibition of forskolin-induced cAMP accumulation assay, KOR antagonist mode versus U50488H. It counts as cell-based. The note with it: for IC50: read-out: KOR Antagonist IC50+/-SEM. In general terms: Cyclic AMP is a second messenger, typically raised through Gs and lowered through Gi signalling.
Chain of kappa-opioid receptor (KOR) (P41145 whole entry): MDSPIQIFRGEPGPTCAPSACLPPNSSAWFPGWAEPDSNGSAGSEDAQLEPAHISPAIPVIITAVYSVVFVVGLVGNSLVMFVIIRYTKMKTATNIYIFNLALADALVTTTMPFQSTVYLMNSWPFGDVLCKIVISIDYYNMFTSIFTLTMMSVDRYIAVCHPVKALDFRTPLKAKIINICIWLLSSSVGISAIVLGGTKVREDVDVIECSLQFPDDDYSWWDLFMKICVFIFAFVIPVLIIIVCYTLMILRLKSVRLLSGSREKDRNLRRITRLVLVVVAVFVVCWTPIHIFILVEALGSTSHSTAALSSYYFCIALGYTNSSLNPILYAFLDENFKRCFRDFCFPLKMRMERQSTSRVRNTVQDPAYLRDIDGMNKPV
Series [4] addresses T2, delta-opioid receptor (DOR) (Homo sapiens, UniProt P41143). The series is described as follows: inhibition of forskolin-induced cAMP accumulation assay, DOR antagonist mode versus SNC80. The format is cell-based. The note with it: for IC50: read-out: DOR Antagonist IC50+/-SEM.
Series [5] has as its system squirrel monkeys. The series is described as follows: ventilatory ratio / respiratory effects in squirrel monkeys. It counts as in vivo.
Series [6] addresses T2, delta-opioid receptor (DOR). The series is described as follows: inhibition of forskolin-induced cAMP accumulation assay, DOR agonist mode. The format is cell-based. The note with it: for EC50: read-out: DOR Agonist EC50+/-SEM; for Emax: read-out: DOR Agonist % Emax+/-SEM (converted).
The target in series [7] is T1, MOR. The series is described as follows: binding affinity at MOR.

T2 sequence (P41143 whole entry): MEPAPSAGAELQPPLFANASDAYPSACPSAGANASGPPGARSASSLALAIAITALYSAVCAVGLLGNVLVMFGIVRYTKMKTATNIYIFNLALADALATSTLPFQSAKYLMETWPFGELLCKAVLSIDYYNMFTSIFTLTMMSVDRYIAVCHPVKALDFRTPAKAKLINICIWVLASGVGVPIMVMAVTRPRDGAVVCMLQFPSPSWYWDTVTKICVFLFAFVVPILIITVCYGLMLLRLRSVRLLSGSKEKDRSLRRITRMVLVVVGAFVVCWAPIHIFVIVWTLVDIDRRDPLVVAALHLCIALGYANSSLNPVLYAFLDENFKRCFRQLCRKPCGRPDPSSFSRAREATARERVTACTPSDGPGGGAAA

At MOR [1], `CC=C[C@H]1[C@H]2CCC[C@]1(c1cccc(O)c1)CCN2CCc1ccccc1` (stereo in doubt) [Compound 22, 3-((1R,5S,9R)-2-phenethyl-9-((E)-prop-1-en-1-yl)-2-azabicyclo[3.3.1]nonan-5-yl) phenol] registered an Emax of 18%. Also, at mu-opioid receptor (MOR), the “MOR Agonist % Emax+/-SEM” value is on record as 2.61 ± 0.64 (89.5 ± 2.9%) and the EC50 came out at 2.61 nM. Besides, in the series with squirrel monkeys [2], the antinociceptive effects entry is on record as “had antinociceptive effects”. The “KOR Antagonist % Imax+/-SEM” value in series [3] (normalized to nor-BNI) is 111.6 ± 7.9%. The IC50 in series [3] (versus EC90 of U50488H) is 35 ± 9.72 nM. Besides, the “DOR Antagonist % Imax+/-SEM” value in series [4] (normalized to naltrexone) was found to be 143.3 ± 11.9%. In series [4] (versus EC50 of SNC80), the IC50 came to 113 ± 19.8 nM. For the same compound, in the series with squirrel monkeys [5], the “effect on ventilatory ratio” value was “slightly lessor effects on ventilatory ratio” and the “respiratory effects compared with morphine” value is listed as “lessor respiratory effects”.
For the compound `CC=C[C@@H]1[C@H]2CCC[C@]1(c1cccc(O)c1)CCN2CCc1ccccc1` (stereo in doubt) [Compound 23, 3-((1R,5S,9S)-2-Phenethyl-9-((E)-prop-1-en-1-yl)-2-azabicyclo[3.3.1]nonan-5-yl) phenol], in series [6], the EC50 is greater than 10000 nM. At mu-opioid receptor (MOR), the “MOR potency relative to morphine” value was determined as 30 fold, the Emax was 101% and the EC50 turned out to be 0.07 nM. For the same compound, the “KOR Antagonist % Imax+/-SEM” value in series [3] (normalized to nor-BNI) turned out to be 114.8 ± 11.2%. Moreover, the IC50 in series [3] (versus EC90 of U50488H) turned out to be 238 ± 52.6 nM. In addition, the “DOR Antagonist % Imax+/-SEM” value in series [4] (normalized to naltrexone) is reported as 74.5 ± 2.3%. In series [4], the IC50 was 9.69 ± 2.23 nM.
`CC=C[C@H]1C2CCC[C@@]1(c1cccc(O)c1)CCN2CCc1ccccc1` (stereo in doubt) [Compound 26, 3-((1R,5R,9R)-2-Phenethyl-9-((E)-prop-1-en-1-yl)-2-azabicyclo[3.3.1]nonan-5-yl) phenol]: the “KOR antagonist (result in words)” value in series [3] is recorded as “moderately potent KOR antagonist”. In series [3] (normalized to nor-BNI), the “KOR Antagonist % Imax+/-SEM” value is 126.7 ± 2.6%. Moreover, the IC50 in series [3] (versus EC90 of U50488H) worked out at 4.02 ± 0.25 nM; in series [4] (versus EC50 of SNC80), 7.52 ± 2.93 nM. Besides, the “DOR Antagonist % Imax+/-SEM” value in series [4] (normalized to naltrexone) is given as 142.5 ± 23.7%.
In the case of `CC=C[C@@H]1C2CCC[C@@]1(c1cccc(O)c1)CCN2CCc1ccccc1` (stereo in doubt) [Compound 27, 3-((1R,5R,9S)-2-Phenethyl-9-((E)-prop-1-en-1-yl)-2-azabicyclo[3.3.1]nonan-5-yl) phenol], in series [6], the Emax is 66.7% and the EC50 came to 60.5 ± 3.74 nM. Also, on mu-opioid receptor (MOR), the Emax was 57.5% and the EC50 stood at 4.66 nM. The “KOR Antagonist % Imax+/-SEM” value in series [3] (normalized to nor-BNI) was determined as 111.8 ± 2.2%. The IC50 in series [3] (versus EC90 of U50488H) came out at 163 ± 37 nM.
For the compound `CCC=C[C@H]1[C@H]2CCC[C@]1(c1cccc(O)c1)CCN2CCc1ccccc1` (stereo in doubt) [Compound 29, 3-((1R,5S,9R)-9-((E)-but-1-en-1-yl)-2-phenethyl-2-azabicyclo[3.3.1]nonan-5-yl) phenol], the Emax at mu-opioid receptor (MOR) was 95.8%. Besides, the EC50 on mu-opioid receptor (MOR) was determined as 11.6 nM. Moreover, the “KOR Antagonist % Imax+/-SEM” value in series [3] (normalized to nor-BNI) amounted to 109.5 ± 8.3%. In addition, the IC50 was 328 ± 96.9 nM in series [3] (versus EC90 of U50488H) and 69 ± 4.83 nM in series [4] (versus EC50 of SNC80). Moreover, the “DOR Antagonist % Imax+/-SEM” value in series [4] (normalized to naltrexone) worked out at 166.6 ± 40.0%.
In the case of `CCC=C[C@@H]1[C@H]2CCC[C@]1(c1cccc(O)c1)CCN2CCc1ccccc1` (stereo in doubt) [Compound 30, 3-((1R,5S,9S)-9-((E)-but-1-en-1-yl)-2-phenethyl-2-azabicyclo[3.3.1]nonan-5-yl) phenol], the Emax at mu-opioid receptor (MOR) was 89.8%. For the same compound, at mu-opioid receptor (MOR), the EC50 came to 14.8 nM. Moreover, in series [3] (normalized to nor-BNI), the “KOR Antagonist % Imax+/-SEM” value is recorded as 103.8 ± 9.2%. Besides, the IC50 in series [3] (versus EC90 of U50488H) came out at 283 ± 46.4 nM; in series [4] (versus EC50 of SNC80), 3220 ± 572 nM. In series [4] (normalized to naltrexone), the “DOR Antagonist % Imax+/-SEM” value came out at 182.3 ± 56.4%.
In the case of `CCC=C[C@@H]1[C@@H]2CCC[C@@]1(c1cccc(O)c1)CCN2CCc1ccccc1` (stereo in doubt) [Compound 33, 3-((1S,5R,9S)-9-((E)-but-1-en-1-yl)-2-phenethyl-2-azabicyclo[3.3.1]nonan-5-yl) phenol], the “KOR Antagonist % Imax+/-SEM” value in series [3] (normalized to nor-BNI) was determined as 96.2 ± 0.9%. For the same compound, the IC50 was determined as 12.2 ± 2.49 nM in series [3] (versus EC90 of U50488H) and 520 ± 144 nM in series [4] (versus EC50 of SNC80). For the same compound, in series [4] (normalized to naltrexone), the “DOR Antagonist % Imax+/-SEM” value was found to be 226.1 ± 14.0%.
With `CCC=C[C@H]1[C@@H]2CCC[C@@]1(c1cccc(O)c1)CCN2CCc1ccccc1` (stereo in doubt) [Compound 34, 3-((1S,5R,9R)-9-((E)-but-1-en-1-yl)-2-phenethyl-2-azabicyclo[3.3.1]nonan-5-yl) phenol], the “KOR antagonist (result in words)” value in series [3] was “moderately potent KOR antagonist”. Besides, in series [3] (normalized to nor-BNI), the “KOR Antagonist % Imax+/-SEM” value is on record as 98.2 ± 2.3%. Besides, the IC50 in series [3] (versus EC90 of U50488H) was 0.79 ± 0.28 nM; in series [4] (versus EC50 of SNC80) it was 8.22 ± 2.44 nM. In addition, in series [4], the “DOR antagonist (result in words)” value is given as “potent DOR antagonist”. Moreover, the “DOR Antagonist % Imax+/-SEM” value in series [4] (normalized to naltrexone) is reported as 211.5 ± 24.7%.
On MOR [1], `C=C[C@H]1[C@H]2CCC[C@]1(c1cccc(O)c1)CCN2CCc1ccccc1` [Compound 13, 3-((1R,5S,9R)-2-Phenethyl-9-vinyl-2-azabicyclo[3.3.1]nonan-5-yl) phenol] returned an Emax of 20.1%. Further, at mu-opioid receptor (MOR), the “MOR Agonist % Emax+/-SEM” value is given as 1.44 ± 0.48 (94.7 ± 3.1%) and the EC50 amounted to 1.44 nM. In addition, the antinociceptive effects result with squirrel monkeys [2] was “had antinociceptive effects in vivo”. Besides, the “KOR Antagonist % Imax+/-SEM” value in series [3] (normalized to nor-BNI) was 97.1 ± 9.2%. Besides, the IC50 in series [3] (versus EC90 of U50488H) amounted to 74 ± 30.5 nM. For the same compound, in series [4] (normalized to naltrexone), the “DOR Antagonist % Imax+/-SEM” value was found to be 119.1 ± 15.5%. Also, the IC50 in series [4] (versus EC50 of SNC80) turned out to be 113 ± 43.6 nM. Also, at MOR [7], the Ki is 0.5 nM. The “effect on ventilatory ratio” value with squirrel monkeys [5] is “decreased ventilatory ratio”.
Take `C=C[C@@H]1[C@H]2CCC[C@]1(c1cccc(O)c1)CCN2CCc1ccccc1` [Compound 14, 3-((1R,5S,9S)-2-Phenethyl-9-vinyl-2-azabicyclo[3.3.1]nonan-5-yl) phenol]: in series [6], the Emax is 22.6% and the EC50 worked out at 57 ± 21.4 nM. This compound also showed an Emax on MOR [1] of 10.5%. Further, on mu-opioid receptor (MOR), the Emax is 67.3% and the EC50 stood at 2.12 nM. Besides, the antinociceptive effects result in the series with squirrel monkeys [2] is “antinociceptive effects in some, but not all animals”. For the same compound, the “KOR Antagonist % Imax+/-SEM” value in series [3] (normalized to nor-BNI) is listed as 101.8 ± 19.1%. Besides, in series [3] (versus EC90 of U50488H), the IC50 stood at 19.8 ± 9.71 nM. In the series on squirrel monkeys [5], the “effect on ventilatory ratio” value is listed as “without selective effects on ventilatory ratio” and the “respiratory effects compared with morphine” value is recorded as “lessor respiratory effects”.
As for `C=C[C@@H]1[C@@H]2CCC[C@@]1(c1cccc(O)c1)CCN2CCc1ccccc1` [Compound 18, 3-((1S,5R,9S)-2-Phenethyl-9-vinyl-2-azabicyclo[3.3.1]nonan-5-yl) phenol], in series [6], the Emax is 40.6% and the EC50 came out at 122 ± 47.1 nM. Moreover, at mu-opioid receptor (MOR), the Emax is 46.6% and the EC50 was found to be 3.94 nM. The “KOR Antagonist % Imax+/-SEM” value in series [3] (normalized to nor-BNI) stood at 105.6 ± 4.6%. For the same compound, in series [3] (versus EC90 of U50488H), the IC50 was determined as 128 ± 48.2 nM.
In the case of `C=C[C@H]1[C@@H]2CCC[C@@]1(c1cccc(O)c1)CCN2CCc1ccccc1` [Compound 19, 3-((1S,5R,9R)-2-Phenethyl-9-vinyl-2-azabicyclo[3.3.1]nonan-5-yl) phenol], in series [3], the “KOR Antagonist % Imax+/-SEM” value is on record as 28.39 ± 4.24 (104.9 ± 11.2%); the “KOR antagonist (result in words)” value was “weak DOR and KOR antagonist”; the IC50 came to 28.4 nM. Further, in series [4], the “DOR Antagonist % Imax+/-SEM” value was 143.65 ± 41.03 (201.4 ± 35.9%); the “DOR antagonist (result in words)” value is “weak DOR and KOR antagonist”; the IC50 is 144 nM.
